Converted amounts (≈) assume the structure as drawn.
What was measured:
Aspergillus niger = assay: Antimicrobial activity against Aspergillus niger; type: functional, organism-based
Candida albicans = assay: Antimicrobial activity against Candida albicans; type: functional, organism-based
Cryptococcus neoformans = assay: Antimicrobial activity against Cryptococcus neoformans; type: functional, organism-based
[1] = test system: Trichophyton mentagrophytes; assay: Antimicrobial activity against Trichophyton mentagrophytes; type: functional, organism-based
P388 = assay: Cytotoxicity against mouse P388 cells; type: functional, cell-based
KB = assay: Cytotoxicity against human KB cells; type: functional, cell-based

IC50 (Aspergillus niger): 16 µg/mL (≈ 36 µM)
IC50 (Candida albicans): 4 µg/mL (≈ 9 µM)
IC50 (Cryptococcus neoformans): 4 µg/mL (≈ 9 µM)
IC50 [1]: 4 µg/mL (≈ 9 µM)
Structure (SMILES): CCC(C)C(=O)C1=C(O)C(C)=C2O[C@@H](C(C)(C)O)C[C@@]2(C/C=C(\C)CCC=C(C)C)C1=O (stereo partly specified) [YOJIRONIN E]
IC50 (P388): 3.7 µg/mL (≈ 8.32 µM)
IC50 (KB): 5 µg/mL (≈ 11.2 µM)
